Values quoted from earlier work in US11491200B2, “Herbal compositions and methods for the prevention and treatment of nail infections” (Produits Naturels Mondias Inc., priority 2016, dated 2022).

Test system: onychomycosis
Details: mild-to-moderate onychomycosis; versus 3% for placebo

For `C=C1CCN([C@H](C)[C@](O)(Cn2cncn2)c2ccc(F)cc2F)CC1` [Jublia], the efficacy is listed as 17%.
